For eight compounds, koff results are on record in BindingDB's records for doi:10.1021/jm00010a019 (Boehringer Ingelheim Pharmaceuticals, 1995).

A word on the koff: it is the first-order rate constant of dissociation. A low value points to a long-lived complex.

The assay addresses T1, Renin (Homo sapiens, UniProt P00797).
T1 sequence (P00797 whole entry): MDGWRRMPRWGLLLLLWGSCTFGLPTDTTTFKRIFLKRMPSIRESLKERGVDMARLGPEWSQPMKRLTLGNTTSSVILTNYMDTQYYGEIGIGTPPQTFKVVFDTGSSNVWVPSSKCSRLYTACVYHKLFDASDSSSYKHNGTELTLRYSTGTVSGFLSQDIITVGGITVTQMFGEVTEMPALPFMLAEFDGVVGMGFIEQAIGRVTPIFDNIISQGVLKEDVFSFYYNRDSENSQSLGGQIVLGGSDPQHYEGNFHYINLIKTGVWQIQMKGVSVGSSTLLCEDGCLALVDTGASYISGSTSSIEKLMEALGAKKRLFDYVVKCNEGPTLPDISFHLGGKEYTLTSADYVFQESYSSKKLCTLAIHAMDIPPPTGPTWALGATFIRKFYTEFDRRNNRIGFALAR
Description: Component acylation rate constant by the compound against Renin was determined.
Consider `CC(C)C[C@H](O)[C@H](O)[C@H](CC1CCCCC1)NC(=O)[C@@H](CC(=O)N(CC(=O)N(C)CCc1ccccn1)CC1CCCCCC1)Cc1csc(N)n1` [(R)-2-(2-Amino-thiazol-4-ylmethyl)-N*4*-cycloheptylmethyl-N*1*-((1S,2R,3S)-1-cyclohexylmethyl-2,3-dihydroxy-5-methyl-hexyl)-N*4*-{[methyl-(2-pyridin-2-yl-ethyl)-carbamoyl]-methyl}-succinamide], for which the koff was found to be 0.000234 s⁻¹.

Consider `CC(C)C[C@H](O)[C@H](O)[C@H](CC1CCCCC1)NC(=O)[C@@H](CC(=O)N(CC(=O)N(C)CCN1CCOCC1)[C@@H](C)c1ccccc1)Cc1csc(N)n1` [(R)-2-(2-Amino-thiazol-4-ylmethyl)-N*1*-((1S,2R,3S)-1-cyclohexylmethyl-2,3-dihydroxy-5-methyl-hexyl)-N*4*-{[methyl-(2-morpholin-4-yl-ethyl)-carbamoyl]-methyl}-N*4*-((S)-1-phenyl-ethyl)-succinamide], for which the koff stood at 0.00481 s⁻¹.

Take `CC(C)C[C@H](O)[C@H](O)[C@H](CC1CCCCC1)NC(=O)[C@@H](CC(=O)N(CC(=O)N(C)CCN(C)C(=O)N1CCOCC1)[C@@H](C)c1ccccc1)Cc1csc(N)n1` [(R)-2-(2-Amino-thiazol-4-ylmethyl)-N*1*-((1S,2R,3S)-1-cyclohexylmethyl-2,3-dihydroxy-5-methyl-hexyl)-N*4*-[(methyl-{2-[methyl-(morpholine-4-carbonyl)-amino]-ethyl}-carbamoyl)-methyl]-N*4*-((S)-1-phenyl-ethyl)-succinamide]: the koff was 0.00133 s⁻¹.

Take `CC(C)C[C@H](O)[C@H](O)[C@H](CC1CCCCC1)NC(=O)[C@@H](CC(=O)N(CC(=O)N(C)CCC(=O)N1CCOCC1)[C@@H](C)c1ccccc1)Cc1csc(N)n1` [(R)-2-(2-Amino-thiazol-4-ylmethyl)-N*1*-((1S,2R,3S)-1-cyclohexylmethyl-2,3-dihydroxy-5-methyl-hexyl)-N*4*-{[methyl-(3-morpholin-4-yl-3-oxo-propyl)-carbamoyl]-methyl}-N*4*-((S)-1-phenyl-ethyl)-succinamide]: the koff amounted to 0.0013 s⁻¹.

Compound `COC1(CN(CC(=O)N(C)CCc2ccccn2)C(=O)C[C@@H](Cc2csc(N)n2)C(=O)N[C@@H](CC2CCCCC2)[C@@H](O)[C@@H](O)CC(C)C)CCCCC1` [(R)-2-(2-Amino-thiazol-4-ylmethyl)-N*1*-((1S,2R,3S)-1-cyclohexylmethyl-2,3-dihydroxy-5-methyl-hexyl)-N*4*-(1-methoxy-cyclohexylmethyl)-N*4*-{[methyl-(2-pyridin-2-yl-ethyl)-carbamoyl]-methyl}-succinamide] gave a koff of 0.00175 s⁻¹.

For `CC(C)C[C@H](O)[C@H](O)[C@H](CC1CCCCC1)NC(=O)[C@@H](CC(=O)N(CC(=O)N(C)CCc1ccccn1)CC1(C)CCCCC1)Cc1csc(N)n1` [(R)-2-(2-Amino-thiazol-4-ylmethyl)-N*1*-((1S,2R,3S)-1-cyclohexylmethyl-2,3-dihydroxy-5-methyl-hexyl)-N*4*-(1-methyl-cyclohexylmethyl)-N*4*-{[methyl-(2-pyridin-2-yl-ethyl)-carbamoyl]-methyl}-succinamide], the dissociation rate constant (koff) came to 0.000569 s⁻¹.

The compound `CC(C)C[C@H](O)[C@H](O)[C@H](CC1CCCCC1)NC(=O)[C@@H](CC(=O)N(CC(=O)N(C)CCc1ccccn1)[C@@H](C)c1ccccc1)Cc1csc(N)n1` [(R)-2-(2-Amino-thiazol-4-ylmethyl)-N*1*-((1S,2R,3S)-1-cyclohexylmethyl-2,3-dihydroxy-5-methyl-hexyl)-N*4*-{[methyl-(2-pyridin-2-yl-ethyl)-carbamoyl]-methyl}-N*4*-((S)-1-phenyl-ethyl)-succinamide] displayed a koff of 0.00135 s⁻¹.

Take `CC(C)C[C@H](O)[C@H](O)[C@H](CC1CCCCC1)NC(=O)[C@@H](CC(=O)N(CC(=O)N(C)CCc1ccccn1)CC1CCCCC1)Cc1csc(N)n1` [2-(2-Amino-thiazol-4-ylmethyl)-N*4*-cyclohexylmethyl-N*1*-(1-cyclohexylmethyl-2,3-dihydroxy-5-methyl-hexyl)-N*4*-{[methyl-(2-pyridin-2-yl-ethyl)-carbamoyl]-methyl}-succinamide(BILA 2157 BS)]: the koff is 0.00028 s⁻¹.
